Source: patent US11299492B2, “JAK kinase inhibitor compounds for treatment of respiratory disease” (THERAVANCE BIOPHARMA R&D IP, LLC, priority 2015, dated 2022)
Values belong to the molecule of their own block, whether it stands above or below them.

Columns and labels:
[1] = Pharmacokinetics in plasma and lung in mouse; format: in vivo; settings: oral aspiration, lung AUC (μg hr/g) / plasma AUC (μg hr/mL)
Procedure: Plasma and lung levels of test compounds and ratios thereof were determined in the following manner. BALB/c mice from Charles River Laboratories were used in the assay. Test compounds were individually formulated in 20% propylene glycol in pH 4 citrate buffer at a concentration of 0.2 mg/mL and 50 uL of the dosing solution was introduced into the trachea of a mouse by oral aspiration. At various time points (typically 0.167, 2, 6, 24 hr) post dosing, blood samples were removed via cardiac puncture and intact lungs were excised from the mice. Blood samples were centrifuged (Eppendorf centrifuge, 5804R) for 4 minutes at approximately 12,000 rpm at 4° C. to collect plasma. Lungs were padded dry, weighed, and homogenized at a dilution of 1:3 in sterile water. Plasma and lung levels of test compound were determined by LC-MS analysis against analytical standards constructed into a standard curve in the test matrix. A lung to plasma ratio was determined as the ratio of the lung AUC in μg hr/g to the plasma AUC in μg hr/mL, where AUC is conventionally defined as the area under the curve of test compound concentration vs. time.

[2] = tested on: IL-13 induced pSTAT6 induction in lung tissue; test: Murine model of IL-13 induced pSTAT6 induction in lung tissue; format: in vivo; settings: mouse lung; for pSTAT6 inhibition in the pharmacodynamic assay: IL-13 challenge; for lung concentration smaller than that of the corresponding compound of the invention by a factor: pharmacodynamic assay, C-1 vs Ex 1, C-2 vs Ex 7, C-3 vs Ex 13, C-4 vs Ex 6
Procedure: I1-13 is an important cytokine underlying the pathophysiology of asthma (Kudlacz et al. Eur. J Pharmacol, 2008, 582, 154-161). IL-13 binds to cell surface receptors activating members of the Janus family of kinases (JAK) which then phosphorylate STAT6 and subsequently activates further transcription pathways. In the described model, a dose of IL-13 was delivered locally into the lungs of mice to induce the phosphorylation of STAT6 (pSTAT6) which is then measured as the endpoint.
Adult balb/c mice from Harlan were used in the assay. On the day of study, animals were lightly anesthetized with isoflurane and administered either vehicle or test compound (0.5 mg/mL, 50 μL total volume over several breaths) via oral aspiration. Animals were placed in lateral recumbency post dose and monitored for full recovery from anesthesia before being returned to their home cage. Four hours later, animals were once again briefly anesthetized and challenged with either vehicle or IL-13 ([…] total dose delivered, 50 μL total volume) via oral aspiration before being monitored for recovery from anesthesia and returned to their home cage. One hour after vehicle or IL-13 administration, lungs were collected for both pSTAT6 detection using an anti-pSTAT6 ELISA (rabbit mAb capture/coating antibody; mouse mAb detection/report antibody: anti-pSTAT6-pY641; secondary antibody: anti-mouse IgG-HRP) and analyzed for total drug concentration as described above in Assay 4.
Selected compounds of the invention were tested in the assay. Activity in the model is evidenced by a decrease in the level of pSTAT6 present in the lungs of treated animals at 5 hours compared to the vehicle treated, IL-13 challenged control animals. The difference between the control animals which were vehicle-treated, IL-13 challenged and the control animals which were vehicle-treated, vehicle challenged dictated the 0% and 100% inhibitory effect, respectively, in any given experiment.

[3] = tested on: IL-13 induced STAT6 phosphorylation in BEAS-2B human lung epithelial cells; test: AlphaScreen JAK1 cellular potency assay (BEAS-2B); format: cell-based; settings: for BEAS-2B pIC50: IL-13 induced STAT6 phosphorylation, BEAS-2B cells; for fold less potent than the corresponding compound of the invention in the BEAS-2B cellular assay: C-1 vs Ex 1, C-2 vs Ex 7, C-3 vs Ex 13, C-4 vs Ex 6
[4] = Dynamic moisture sorption assessment; format: physicochemical
Procedure: Dynamic moisture sorption (DMS) measurement was performed using a VTI atmospheric microbalance, SGA-100 system (VTI Corp., Hialeah, Fla. 33016). A weighed sample was used and the humidity was lowest possible value (close to 0% RH) at the start of the analysis. The DMS analysis consisted of an initial drying step (˜0% RH) for 120 minutes, followed by two cycles of sorption and desorption with a scan rate of 5% RH/step over the humidity range of 5% RH to 90% RH. The DMS run was performed isothermally at 25° C.

Lung to Plasma ratio Assay 4 [1]: A (A denotes a ratio>100)
Structure (SMILES): CCc1cc(O)c(F)cc1-c1ccc2c(-c3nc4c([nH]3)CCN(CCN(C)CC(C)C)C4)n[nH]c2c1 [Example 3-33]

Structure (SMILES): CCc1cc(O)c(F)cc1-c1ccc2c(-c3nc4c([nH]3)CCN(C3CN(C5CCS(=O)(=O)C5)C3)C4)n[nH]c2c1 (stereo not drawn) [Example 1-15]
pSTAT6 inhibition in the pharmacodynamic assay [2]: exceptions

Lung to Plasma ratio Assay 4 [1]: A (A denotes a ratio>100)
Structure (SMILES): CCc1cc(O)c(F)cc1-c1ccc2c(-c3nc4c([nH]3)CCN(C[C@@H]3COCCN3)C4)n[nH]c2c1 [Example 14, (R)-5-Ethyl-2-fluoro-4-(3-(5-(morpholin-3-ylmethyl)-4,5,6,7-tetrahydro-1H-imidazo[4,5-c]pyridin-2-yl)-1H-indazol-6-yl)phenol]

Lung to Plasma ratio Assay 4 [1]: A (A denotes a ratio>100)
Structure (SMILES): CCc1cc(O)c(F)cc1-c1ccc2c(-c3nc4c([nH]3)CCN(CCNC3CC(OC)C3)C4)n[nH]c2c1 (stereo not drawn) [Example 8, 5-Ethyl-2-fluoro-4-(3-(5-(2-((3-methoxycyclobutyl)amino)ethyl)-4,5,6,7-tetrahydro-1H-imidazo[4,5-c]pyridin-2-yl)-1H-indazol-6-yl)phenol]

Structure (SMILES): CCc1cc(O)c(F)cc1-c1ccc2c(-c3nc4c([nH]3)CCN(C3CN(CCOC)C3)C4)n[nH]c2c1 [Example 1-6]
BEAS-2B pIC50 [3]: A (A represents a pIC50 value≥8 (IC50≤10 nM))

Lung to Plasma ratio Assay 4 [1]: A (A denotes a ratio>100)
Structure (SMILES): CCc1cc(O)c(F)cc1-c1ccc2c(-c3nc4c([nH]3)CCN(C[C@@H]3CCCN3C)C4)n[nH]c2c1 [Example 11, (S)-5-ethyl-2-fluoro-4-(3-(5-((1-methylpyrrolidin-2-yl)methyl)-4,5,6,7-tetrahydro-1H-imidazo[4,5-c]pyridin-2-yl)-1H-indazol-6-yl)phenol]

Structure (SMILES): CCc1cc(O)c(F)cc1-c1ccc2c(-c3nc4c([nH]3)CCN(CC3CCCOC3)C4)n[nH]c2c1 (stereo not drawn) [Example C-3, reference compound]
lung concentration smaller than that of the corresponding compound of the invention by a factor [2]: 13
fold less potent than the corresponding compound of the invention in the BEAS-2B cellular assay [3]: 3 fold

Structure (SMILES): CCc1cc(O)c(F)cc1-c1ccc2c(-c3nc4c([nH]3)CCN(CCC(C)C)C4)n[nH]c2c1 [Example C-2, reference compound]
lung concentration smaller than that of the corresponding compound of the invention by a factor [2]: 52
fold less potent than the corresponding compound of the invention in the BEAS-2B cellular assay [3]: 6 fold

Lung to Plasma ratio Assay 4 [1]: A (A denotes a ratio>100)
Structure (SMILES): CCc1cc(O)c(F)cc1-c1ccc2c(-c3nc4c([nH]3)CCN(C[C@H]3COCCN3)C4)n[nH]c2c1 [Example 13, (S)-5-Ethyl-2-fluoro-4-(3-(5-(morpholin-3-ylmethyl)-4,5,6,7-tetrahydro-1H-imidazo[4,5-c]pyridin-2-yl)-1H-indazol-6-yl)phenol]

Structure (SMILES): CCc1cc(O)c(F)cc1-c1ccc2c(-c3nc4c([nH]3)CCN(CCNC3CC(OC)C3)C4)n[nH]c2c1 (stereo not drawn) [Example 3-30]
BEAS-2B pIC50 [3]: A (A represents a pIC50 value≥8 (IC50≤10 nM))

Structure (SMILES): CCc1cc(O)c(F)cc1-c1ccc2c(-c3nc4c([nH]3)CCN(C3CC(C)C3)C4)n[nH]c2c1 (stereo not drawn) [Example C-1, 5-Ethyl-2-fluoro-4-(3-(5-(3-methylcyclobutyl)-4,5,6,7-tetrahydro-1H-imidazo[4,5-c]pyridin-2-yl)-1H-indazol-6-yl)phenol]
lung concentration smaller than that of the corresponding compound of the invention by a factor [2]: 36

Structure (SMILES): CCc1cc(O)c(F)cc1-c1ccc2c(-c3nc4c([nH]3)CCN(C3CN(CCC#N)C3)C4)n[nH]c2c1 [Example 1-8]
BEAS-2B pIC50 [3]: A (A represents a pIC50 value≥8 (IC50≤10 nM))

Lung to Plasma ratio Assay 4 [1]: A (A denotes a ratio>100)
Structure (SMILES): CCc1cc(O)c(F)cc1-c1ccc2c(-c3nc4c([nH]3)CCN(CC3CNC3)C4)n[nH]c2c1 [Example 14-7]

weight gain ([4]; humidity range of 5% to 90% relative humidity, 25° C): less than 0.12%
hygroscopicity ([4]; two cycles of sorption and desorption, 5% to 90% RH): non-hygroscopic
Structure (SMILES): CCc1cc(O)c(F)cc1-c1ccc2c(-c3nc4c([nH]3)CCN(C3CCN(C)CC3)C4)n[nH]c2c1 [crystalline hydrate, Crystalline hydrate of 5-ethyl-2-fluoro-4-(3-(5-(1-methylpiperidin-4-yl)-4,5,6,7-tetrahydro-1H-imidazo[4,5-c]pyridin-2-yl)-1H-indazol-6-yl)phenol]

Structure (SMILES): CCc1cc(O)c(F)cc1-c1ccc2c(-c3nc4c([nH]3)CCN(CCNC3(C#N)CC3)C4)n[nH]c2c1 [Example 3-1]
pSTAT6 inhibition in the pharmacodynamic assay [2]: exceptions

Structure (SMILES): CCc1cc(O)c(F)cc1-c1ccc2c(-c3nc4c([nH]3)CCN(C3CCC(C)CC3)C4)n[nH]c2c1 (stereo not drawn) [Example C-4, reference compound]
lung concentration smaller than that of the corresponding compound of the invention by a factor [2]: 23
fold less potent than the corresponding compound of the invention in the BEAS-2B cellular assay [3]: 6 fold

Lung to Plasma ratio Assay 4 [1]: A (A denotes a ratio>100)
Structure (SMILES): CCc1cc(O)c(F)cc1-c1ccc2c(-c3nc4c([nH]3)CCN(CCN3CCC[C@@H]3C)C4)n[nH]c2c1 [Example 15, (S)-5-ethyl-2-fluoro-4-(3-(5-(2-(2-methylpyrrolidin-1-yl)ethyl)-4,5,6,7-tetrahydro-1H-imidazo[4,5-c]pyridin-2-yl)-1H-indazol-6-yl)phenol]
